Patent US20210369583A1, “COMPOSITIONS FOR PROVIDING SKIN CARE BENEFITS AND METHODS OF USE” (Danisco US Inc., priority 2018, published 2021)
Marks after values point to notes of the source that are not given here.

Columns and labels:
Type in all cases: cell-based
[1] = system: human living skin explant; assay: Immunostaining of carbonylated proteins (FTZ) on human living skin explants; settings: UV irradiated
Experimental: (§1) human skin explants of an average diameter of 12 mm (±1 mm) were prepared on an abdoplasty coming from a person). The explants were kept in survival in BEM culture medium at 37° C. in a humid, 5%-CO2 atmosphere.
(§2) On day 0 (D0), day 1, day 2 and day 3 (3 hours before irradiation), the tested products were applied topically on surface of skin explants at the rate of 2 mg/cm^2, twice a day for D1 and D2 and once on DO and D3. […] The medium was half renewed (1 ml per well) on day 2.
(§3) On D3, the culture media of all the batches was replaced by HBSS solution (Hank's Balanced Saline Solution; 1 ml per explant). The batches “UV” were irradiated by UVA+ UVB using a UV simulator Vibert Lourmat RMX 3W with a dose of 18 J/cm2 of UVA (4 MED, minimal erythemal dose) and 0.3 J/cm2 of UVB (2 MED). The unirradiated batches were kept in HBSS in the dark. At the end of the irradiation the explants were put back in 2 mL of BEM medium.
(§4) After fixation for 24 hours in buffered formalin, the samples were dehydrated and impregnated in paraffin using a Leica PEARL dehydration automat. The samples were embedded using a Leica EG 1160 embedding station. 5-μm-thick sections were made using a Leica RM 2125 Minot-type microtome, and the sections were mounted on Superfrost® histological glass slides. The frozen samples were cut into 7-μm-thick sections using a Leica CM 3050 cryostat. Sections were then mounted on Superfrost® plus silanized glass slides. The microscopical observations were realized using a Leica DMLB or Olympus BX43 microscope. Pictures were digitized with a numeric DP72 Olympus camera with CellD storing software.
Protein carbonylation is a type of protein oxidation that can be promoted by reactive oxygen species (ROS), generated by UV exposure. FTZ marker assay was conducted by immunostaining in the living epidermis of human skin explant as follows: Carbonylated proteins were stained on frozen sections with the anti-carbonylated proteins probe (fluorescein-5-thiosemicarbazid-FTZ) (Lifetechnologies, Ref. F-121) diluted at 0.5 μM in MES-Na+ and incubated for 30 minutes in the dark and at room temperature. The staining was observed by epifluorescence and assessed by microscopical observations. Batches analyzed were T, TUV, P1UV, P2UV, P3UV at day 4 also referred to as TJ4, TUVJ4, P1UVJ4, P2UVJ4, P3UVJ4

[2] = system: human living skin explant; assay: TUNEL assay (UV-induced DNA damage) on human living skin explants; settings: UV irradiated
Experimental: as §1, §2, §3, §4
DNA oxidization is a type of damage that can be promoted by reactive oxygen species (ROS), generated by UV exposure. […] The staining was assessed by microscopical observation. Batches analyzed were T, TUV, P1UV, P2UV, P3UV at day 4 also referred to as TJ4, TUVJ4, P1UVJ4, P2UVJ4, P3UVJ4 (T=Control batch non treated non irradiated; TJ4=T at Day 4 (D4); TUV: control batch non treated UV irradiated; TUVJ4=[…] at Day 4; P1J4: product A 4% non irradiated at D4; P2J4: product A 2% non irradiated at D4; P3J4: product A 1% non irradiated at D4; P1UV: product A 4% UV irradiated; P1UVJ4: product A 4% UV irradiated at D4 P2UV: product A 2% UV irradiated; P2UVJ4: product A 2% UV irradiated at D4; P3UV: product A 1% UV irradiated; P3UVJ4: product A 1% UV irradiated at D4

[3] = system: living human skin explants; assay: Biochemical assay of MDA (lipid peroxidation) on living human skin explants exposed to pollutants
Experimental: Product A (Table 11) was diluted in water to obtain the following products at concentrations: product P1=A at 4%, product P2=A at 2% and product P3=A at 1%.
(§5) 59 human skin explants of an average diameter of 14 mm (±1 mm) were prepared on an abdoplasty coming from a person. The explants were kept in survival in BEM culture medium at 37° C. in a humid, 5%-CO2 atmosphere.
(§6) The tested products were topically applied on the basis of 2 μl per cm^2 and spread using a small spatula twice a day (morning and evening) on day 0, 1, 2, 3 and 4.
(§7) On D4, the explants of the batches ML and PML were placed on the 3D grid with 900 μl of HBSS and placed into the PolluBox® system.
(§8) 3 mL of the solution <<ML>> (supplemented with 150 μl/ml of NaCl 0.9%) were exposed by vaporization for 1 hour and half, as shown in the figure below.
The MDA assay was realized with an enhanced method of the TBARs (Thiobarbituric Acid Reactive Species) assay. The MDA was assayed in HBSS medium by addition of TBARs solution (thiobarbituric acid, hydrochloric acid and tricholoroacetic acid) and placed in a water bath (80° C. for 15 minutes). A lot of substances (like glucose) which are not related with lipoperoxidation, react with thiobarbituric acid (ThioBarbituric Acid Reagents=TBARS), so to enhance the specificity of the assay, the MDA was extracted by a liquid/liquid extraction with butanol. The MDA in butanol was measured in spectrofluorimetry (excitation: 515 nm, emission: 550 nm) using a Tecan Infinite M200 Pro microplate reader. Using this assay, MDA contained in the culture medium BEMc on […] was measured for the 4 explants per batch. The MDA concentration was expressed in pmol of MDA/ml of the medium. Concerned batches: all batches on day 5, 4 explants per batch.
The average of the blank batch TJ5 was calculated (154.0 nmol/L). Then, for each explant of MLJ5, this average value was subtracted from […]. That corresponds to calculating the delta (increase) of MDA induced by ML for each explant compared to the average of the batch without ML, it is ΔML.
These average deltas were then compared to the average delta of MDA induction without treatment (ΔML).

[4] = system: Aryl hydrocarbon receptor (AhR); assay: Immunostaining of AHR in human skin explants, image analysis
Experimental: as §5, §6, §7, §8
Aryl hydrocarbon receptor (AhR) is a transcriptional factor implicated in molecular response following the exposure of several compounds, including aromatic polycyclic hydrocarbon and ozone (Haarmann-Stemmann et al. 2012.JID 132:7-9; Afaq et al., 2009 JID 129:2396-2403). AhR is involved in activation of cytochrome family genes and CYP450 detoxification enzymes. In presence of pollution AhR is dissociated from the protein complex (HSP90), translocated to the nucleus, dimerized with ARNt, and binds to the DNA on target genes (Cytochrome family—activated in response to xenobiotics) (Ikuta et al., 2009. Biochemical pharmacology. 77:588-596). […] The immunostaining was performed using an automated slide processing system (Autostainer, Dako) and assessed by microscopical observation. Concerned batches: all the batches
The images analyses were performed on all the images (9 to 12 images) of each batch using the CellD storing software (Olympus Microscopy, Matrix Optics (M)SdnBhd, Taman Mayhang, Maylasia). For each batch of explants, the percentage of the region of interest covered by the staining (stained surface percentage) was determined by image analysis. […]
The ΔML for each treatment P was calculated using the same method to obtain the ΔPML, i.e. the variation of the Surf % induced by the pollutants exposure when treated with P. […]

[5] = system: human living skin explant; assay: Cell viability of human living skin explants (UV study); settings: non irradiated; day 4
Experimental: as §1, §2, §3, §4

[6] = after pollutants exposure, day 5

Q: For `O=C(O)[C@@H]1CCCN1` [Combination P6, L-Proline], which “effect on UV-induced carbonylated proteins” value [1] is on record?
A: slightly inhibits the formation of carbonylated proteins

Q: What about the “activity against UV-induced DNA damage” value [2] of the same compound?
A: totally inhibits the increase of DNA damage

Q: And the “MDA, variation ΔPML vs ΔML” value ([3]; MDA induction by pollutants, day 5)?
A: −62%*

Q: And the “reduction of the increase of MDA” value ([3]; after pollutant exposure (ΔPML vs ΔML))?
A: 62%

Q: What about the “MDA, variation PML vs ML” value [3, 6] of the same compound?
A: −18%*

Q: And the “AHR, variation PML vs ML” value [4, 6]?
A: −15%**

Q: And the “decrease of AhR expression compared to batch TJ5” value ([4]; without pollutants, D5)?
A: 63%

Q: What about the “AHR, variation P vs T” value ([4]; without pollutants, day 5) of the same compound?
A: −63%*

Q: And the “Cell Viability, variation vs TJ4” value [5]?
A: ↔ (indicates no variation)
